# Data from US4175081A, “5-Substituted thiadiazole ureas” (priority 1977, dated 1979).
# How the values were obtained:
# [1] = test system: Barnyard grass (BG); assay: Post-emergence herbicide test; assay type: in vivo; conditions: Echinochloa crus-galli, 336 h, two weeks after treatment; for pest or weed control at 8966.8 g/ha: 8 lb/acre
# Procedure, shortened: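 Greenhouse pot-grown barnyard grass seedlings sprayed post-emergence at 8 lbs active compound per acre (some at 4 lbs/acre) in 38 gallons per acre, then sub-irrigated. Injury or control rated visually two weeks after treatment.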
# [2] = test system: Cotton (CT); assay: Post-emergence herbicide test; assay type: in vivo, Gossypium hirsutum var. DPL smooth leaf; conditions: Gossypium hirsutum, post-emergence, 336 h, two weeks after treatment; for pest or weed control at 8966.8 g/ha: 8 lb/acre
# Procedure, shortened: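 This greenhouse post-emergence test measured how well spray treatments controlled cotton. Seedlings of Gossypium hirsutum var. DPL smooth leaf, with expanded cotyledons and a first true leaf 1' in length, were sprayed with 50 ml formulations in a belt-fed spray hood. They were then returned to the greenhouse and watered only by sub-irrigation. Injury was scored visually as % control after two weeks.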
# [3] = test system: Yellow foxtail grass (YF); assay: Pre-emergence herbicide test; assay type: in vivo, Setaria glauca; conditions: Setaria, 336 h, two weeks after treatment; for pest or weed control at 8966.8 g/ha: 8 lb/acre
# Protocol: (§1) Yellow foxtail grass (YF)--Setaria glauca
# (§2) All crop and weed species were planted individually in 3' plastic pots containing potting soil. Four seeds each of corn, cotton, and snapbeans were seeded to a depth equal to the diameter of the seed. All other species were surface seeded and sprinkled with screened soil in an amount sufficient to cover the seed. Immediately after planting, all pots were watered by sub-irrigation in greenhouse trays. Pots for the pre-emergence phase were seeded one day before treatment.
# (§3) Compounds were tested at rates of application equivalent to 8 lbs. of actual compound per acre in a spray volume of 38 gallons per acre. Spray hood constants required to deliver the above volume are as follows:
# (§4) Formulations for spray applications were prepared in 50 ml volumes with the following three components:
# (§5) Formulations for the 4 lbs/acre rate were prepared by adjusting the amount of active ingredient accordingly.
# (§6) Spray applications were made in a hood containing a removable belt and fixed spray nozzle. For passage through the spray hood, one pot of each specie (pre-emergence phase) was placed on the rear half of the flat. Treatments were removed to the greenhouse after spraying. Watering during the observation period was done only by sub-irrigation.
# (§7) Two weeks after treatment, pre- and post-emergence injury or control was visually rated, and the results were as shown in the following tables. Pre-emergence data are provided in TABLE III and post-emergence data are provided in TABLE IV, for compounds having the formula illustrated in TABLE I. Correspondingly, pre-emergence and post-emergence data, respectively, are set forth in TABLES V AND VI, for compounds having the formula illustrated in TABLE II.
# [4] = test system: Cotton (CT); assay: Pre-emergence herbicide test; assay type: in vivo, Gossypium hirsutum var. DPL smooth leaf; conditions: Gossypium hirsutum, 336 h, two weeks after treatment; for pest or weed control at 8966.8 g/ha: 8 lb/acre
# Procedure, shortened: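 Visual injury/control ratings were taken at two weeks post-spray. Pots seeded a day earlier received compound pre-emergence at 8 lbs/acre, or 4 lbs/acre, in a 38 gallon/acre spray volume, and were then held in the greenhouse, watered only from below.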
# [5] = test system: Corn (CN); assay: Post-emergence herbicide test; assay type: in vivo; conditions: Zea mays, 336 h, two weeks after treatment; for pest or weed control at 8966.8 g/ha: 8 lb/acre
# Procedure, shortened: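 Greenhouse seedlings grown in potting soil and sprayed post-emergence at 8 lbs compound/acre (formulations also made for 4 lbs/acre) in 38 gallons/acre spray volume. Watering by sub-irrigation only. Injury or control rated visually two weeks after treatment.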
# [6] = test system: Corn (CN); assay: Pre-emergence herbicide test; assay type: in vivo; conditions: Zea mays, 336 h, two weeks after treatment; for pest or weed control at 8966.8 g/ha: 8 lb/acre
# Procedure, shortened: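 Visual injury/control ratings were made 2 weeks post-spray on corn pots seeded (4 seeds, seed-diameter depth) the day before treatment. Application was a belt-hood spray of 38 gal/acre delivering 8 lbs active per acre, with a 4 lbs/acre rate also formulated. Watering was by sub-irrigation throughout.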
# [7] = test system: Amaranth pigweed (PW); assay: Pre-emergence herbicide test; assay type: in vivo, Amaranthus retroflexus; conditions: 336 h, two weeks after treatment; for pest or weed control at 8966.8 g/ha: 8 lb/acre
# Procedure, shortened: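 Visual injury or control ratings were made at two weeks on pre-emergence pots, sub-irrigated in the greenhouse. Seeds were sown a day before a hood spray delivering 8 lbs/acre (or 4 lbs/acre) of compound in 38 gallons per acre.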
# [8] = test system: Crabgrass (CG); assay: Pre-emergence herbicide test; assay type: in vivo, Digitaria sanquinalis; conditions: Digitaria sanguinalis, pre-emergence, 336 h, two weeks after treatment; for pest or weed control at 8966.8 g/ha: 8 lb/acre
# Procedure, shortened: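 Crabgrass (Digitaria sanquinalis) was surface seeded in 3' plastic pots of potting soil, covered with screened soil, and watered by sub-irrigation in greenhouse trays. Pots were seeded one day before spraying in a hood with a moving belt and fixed nozzle. Plants stayed in the greenhouse on sub-irrigation, and pre-emergence control was rated visually two weeks after treatment.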
# [9] = test system: Johnson grass (JG); assay: Pre-emergence herbicide test; assay type: in vivo, Sorgum helepense; conditions: Sorghum halepense, 336 h, two weeks after treatment; for pest or weed control at 8966.8 g/ha: 8 lb/acre
# Procedure, shortened: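 Visual injury or control rating two weeks post-treatment, after pre-emergence spray of 8 or 4 lbs active per acre (38 gal/acre) onto pots sown the previous day. Greenhouse watering by sub-irrigation only.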
# [10] = test system: Yellow foxtail grass (YF); assay: Post-emergence herbicide test; assay type: in vivo, Setaria glauca; conditions: Setaria, 336 h, two weeks after treatment; for pest or weed control at 8966.8 g/ha: 8 lb/acre
# Protocol: as §1, §2
# Planting dates for the post-emergence phase were varied so that all seedlings would reach the desired stage of development simultaneously. The proper stage of seedling development for treatment in the post-emergence phase is as follows:
# as §3, §4, §5, §6, §7
# [11] = test system: Amaranth pigweed (PW); assay: Post-emergence herbicide test; assay type: in vivo, Amaranthus retroflexus; conditions: 336 h, two weeks after treatment; for pest or weed control at 8966.8 g/ha: 8 lb/acre
# Procedure, shortened: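 Visual injury or control ratings were made two weeks after spraying, with greenhouse watering by sub-irrigation only. Treatment was post-emergence, when pigweed seedlings had 1 or 2 true leaves, at 8 lbs active compound per acre (4 lbs/acre formulations also made) in a 38 gallons-per-acre spray volume.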
# [12] = test system: Johnson grass (JG); assay: Post-emergence herbicide test; assay type: in vivo, Sorgum helepense; conditions: Sorghum halepense, 336 h, two weeks after treatment; for pest or weed control at 8966.8 g/ha: 8 lb/acre
# Procedure, shortened: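 Visual injury or control scores taken 2 weeks after a post-emergence spray of pot-grown plants. Application was 8 lbs/acre (or 4 lbs/acre) in 38 gal/acre. Plants were held in the greenhouse with sub-irrigation only.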
# [13] = test system: Barnyard grass (BG); assay: Pre-emergence herbicide test; assay type: in vivo; conditions: Echinochloa crus-galli, 336 h, two weeks after treatment; for pest or weed control at 8966.8 g/ha: 8 lb/acre
# Procedure, shortened: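 Greenhouse pre-emergence spray test: pots seeded one day before treatment received compound at rates of 8 or 4 lb/acre (38 gal/acre). Visual injury/control scores for Echinochloa crus-galli taken at two weeks, with watering by sub-irrigation only.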
# [14] = test system: Crabgrass (CG); assay: Post-emergence herbicide test; assay type: in vivo, Digitaria sanquinalis; conditions: Digitaria sanguinalis, post-emergence, 336 h, two weeks after treatment; for pest or weed control at 8966.8 g/ha: 8 lb/acre
# Procedure, shortened: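 Crabgrass (Digitaria sanquinalis) was surface seeded individually in 3' plastic pots of potting soil, covered with screened soil, and watered by sub-irrigation in greenhouse trays. Planting was staggered so seedlings reached the target stage together. Post-emergence sprays were applied in a hood with a removable belt and fixed nozzle, and control was visually rated two weeks after treatment.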
# [15] = test system: Bean (BN); assay: Pre-emergence herbicide test; assay type: in vivo, Phaseolus vulgaris var. Black Valentine; conditions: Phaseolus vulgaris, 336 h, two weeks after treatment; for pest or weed control at 8966.8 g/ha: 8 lb/acre
# Procedure, shortened: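 Visual injury/control ratings were taken two weeks post-spray on sub-irrigated Phaseolus vulgaris var. Black Valentine. Pots were sown a day before treatment. Pre-emergence spray delivered 8 lbs actual compound per acre (or 4 lbs/acre) at 38 gallons per acre.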
# [16] = test system: Bean (BN); assay: Post-emergence herbicide test; assay type: in vivo, Phaseolus vulgaris var. Black Valentine; conditions: Phaseolus vulgaris, post-emergence, 336 h, two weeks after treatment; for pest or weed control at 8966.8 g/ha: 8 lb/acre
# Procedure, shortened: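 Bean seedlings (Phaseolus vulgaris var. Black Valentine) were grown in potting soil in 3' pots until the primary leaves expanded. They were then sprayed under a hood with a removable belt and fixed nozzle, using 50 ml formulations. Afterward they were returned to the greenhouse and watered only by sub-irrigation. Percent control was judged visually two weeks after treatment.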
# [17] = test system: Turnip (TP); assay: Post-emergence herbicide test; assay type: in vivo, Brassica sp.; conditions: Brassica rapa, post-emergence, 336 h, two weeks after treatment; for pest or weed control at 8966.8 g/ha: 8 lb/acre
# Procedure, shortened: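 A greenhouse post-emergence herbicide test on turnip. Seeds were sown on the surface of potting soil in 3' plastic pots, lightly covered with screened soil and watered from below. Planting was timed so seedlings had 1 or 2 true leaves above the cotyledons at spraying, done in a hood with a fixed nozzle. Control or injury was scored by eye after two weeks.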
# [18] = test system: Turnip (TP); assay: Pre-emergence herbicide test; assay type: in vivo, Brassica sp.; conditions: Brassica rapa, pre-emergence, 336 h, two weeks after treatment; for pest or weed control at 8966.8 g/ha: 8 lb/acre
# Procedure, shortened: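 In this pre-emergence greenhouse test, turnip was seeded on the surface of potting soil in 3' plastic pots, lightly covered with screened soil, and watered from below. One day later the pots were sprayed in a belt-fed spray hood. Watering continued only by sub-irrigation, and percent control was visually scored two weeks after treatment.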
SMILES,pest or weed control at 8966.8 g/ha [1] [%],pest or weed control at 8966.8 g/ha [2] [%],pest or weed control at 8966.8 g/ha [3] [%],pest or weed control at 8966.8 g/ha [4] [%],pest or weed control at 8966.8 g/ha [5] [%],pest or weed control at 8966.8 g/ha [6] [%],pest or weed control at 8966.8 g/ha [7] [%],pest or weed control at 8966.8 g/ha [8] [%],pest or weed control at 8966.8 g/ha [9] [%],pest or weed control at 8966.8 g/ha [10] [%],pest or weed control at 8966.8 g/ha [11] [%],pest or weed control at 8966.8 g/ha [12] [%],pest or weed control at 8966.8 g/ha [13] [%],pest or weed control at 8966.8 g/ha [14] [%],pest or weed control at 8966.8 g/ha [15] [%],pest or weed control at 8966.8 g/ha [16] [%],pest or weed control at 8966.8 g/ha [17] [%],pest or weed control at 8966.8 g/ha [18] [%],other results
"CN(C)C(=O)N(C)c1nnc(C(F)(F)F)s1 [Example 4, 1,1,3-Trimethyl-3-[5-Trifluoromethyl-2-(1,3,4-Thiadiazolyl)] Urea]",–,–,–,–,–,–,–,–,–,–,–,–,–,–,–,–,–,–,pest or weed control at 4483.4 g/ha ([1]; 4 lb/acre): 60%; pest or weed control at 4483.4 g/ha ([2]; 4 lb/acre): 100%; pest or weed control at 4483.4 g/ha ([3]; 4 lb/acre): 80%; pest or weed control at 4483.4 g/ha ([4]; 4 lb/acre): 70%; pest or weed control at 4483.4 g/ha ([5]; 4 lb/acre): 100%; pest or weed control at 4483.4 g/ha ([6]; 4 lb/acre): 70%; pest or weed control at 4483.4 g/ha ([7]; 4 lb/acre): 100%; pest or weed control at 4483.4 g/ha ([8]; 4 lb/acre): 100%; pest or weed control at 4483.4 g/ha ([9]; 4 lb/acre): 40%; pest or weed control at 4483.4 g/ha ([10]; 4 lb/acre): 90%; pest or weed control at 4483.4 g/ha ([11]; 4 lb/acre): 100%; pest or weed control at 4483.4 g/ha ([12]; 4 lb/acre): 40%; pest or weed control at 4483.4 g/ha ([13]; 4 lb/acre): 90%; pest or weed control at 4483.4 g/ha ([14]; 4 lb/acre): 80%; pest or weed control at 4483.4 g/ha ([15]; 4 lb/acre): 90%; pest or weed control at 4483.4 g/ha ([16]; 4 lb/acre): 100%; pest or weed control at 4483.4 g/ha ([17]; 4 lb/acre): 100%; pest or weed control at 4483.4 g/ha ([18]; 4 lb/acre): 100%
O=C(Nc1ccccc1)Nc1nnc(C(F)(F)F)s1 [Example 14],10,50,10,50,50,50,90,10,20,10,90,20,10,10,100,100,10,10,–
CNC(=O)Nc1nnc(OC)s1 [Example 24],20,70,10,10,20,30,60,10,10,20,90,20,10,30,60,–,60,10,–
CCNC(=O)Nc1nnc(SC)s1 [Example 28],20,70,30,40,20,10,30,40,20,20,30,20,50,20,80,50,50,0,–
CSc1nnc(NC(=O)NC(C)C)s1 [Example 30],20,70,10,10,20,10,10,20,10,20,50,20,10,20,50,100,40,–,–
